Test results reported in patent US20170008921A1, “C-3 NOVEL TRITERPENONE WITH C-28 REVERSE AMIDE DERIVATIVES AS HIV INHIBITORS” (HETERO RESEARCH FOUNDATION, priority 2015, published 2017).

How the values were obtained:
[1] = Cyto-toxicity (MTT assay); type: cell-based
[2] = Single dose oral pharmacokinetic study; type: in vivo; settings: mouse, Mice oral PK @30 mg/kg, plasma, vehicle 10% Solutol+20% PEG; for AUC(0-t): read-out: AUC0-t; for Cmax: read-out: Cmax
Method in brief: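 Rats or mice dosed orally at 30 mg/kg in 10% Solutol+20% PEG. Acetonitrile precipitation, then LC-MS/MS quantification for PK parameters.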

SMILES: CC(C)C1=C2[C@H]3CC[C@@H]4[C@@]5(C)CC[C@H](OC(=O)[C@H]6C[C@@H](C(=O)O)C6(C)C)C(C)(C)[C@@H]5CC[C@@]4(C)[C@]3(C)CC[C@@]2(NC(=O)C2(NC(=O)c3ccc(Cl)cc3)CCCC2)CC1=O [Example 46, (1R,3S)-3-((((3aR,5aR,5bR,7aR,9S,11aR,11bR,13aS)-3a-(1-(4-chlorobenzamido)cyclopentane-1-carboxamido)-1-isopropyl-5a,5b,8,8,11a-pentamethyl-2-oxo-3,3a,4,5,5a,5b,6,7,7a,8,9,10,11,11a,11b,12,13,13a-octadecahydro-2H-cyclopenta[a]chrysen-9-yl)oxy)carbonyl)-2,2-dimethylcyclobutane-1-carboxylic acid]
- viability at 4 days, 0.01 µM [1]: 52%
- viability at 4 days, 0.1 µM [1]: 12%
- viability at 4 days, 1 µM [1]: 4%
- AUC(0-t) [2]: 836 µg·h/mL
- Cmax [2]: 29500 ng/mL

SMILES: Cc1ccc(C(=O)NC2(C(=O)N[C@@]34CC[C@]5(C)[C@H](CC[C@@H]6[C@@]7(C)CC[C@H](OC(=O)[C@H]8C[C@@H](C(=O)O)C8(C)C)C(C)(C)[C@@H]7CC[C@]65C)C3=C(C(C)C)C(=O)C4)CCCC2)cn1 [Example 47, (1R,3S)-3-((((3aR,5aR,5bR,7aR,9S,11aR,11bR,13aS)-1-isopropyl-5a,5b,8,8,11a-pentamethyl-3a-(1-(6-methylnicotinamido)cyclopentane-1-carboxamido)-2-oxo-3,3a,4,5,5a,5b,6,7,7a,8,9,10,11,11a,11b,12,13,13a-octadecahydro-2H-cyclopenta[a]chrysen-9-yl)oxy)carbonyl)-2,2-dimethylcyclobutane-1-carboxylic acid]
- viability at 4 days, 0.01 µM [1]: 75%
- viability at 4 days, 0.1 µM [1]: 14%
- viability at 4 days, 1 µM [1]: 4%
- AUC(0-t) [2]: 538 µg·h/mL
- Cmax [2]: 23600 ng/mL

SMILES: CC(C)C1=C2[C@H]3CC[C@@H]4[C@@]5(C)CC[C@H](OC(=O)[C@H]6C[C@@H](C(=O)O)C6(C)C)C(C)(C)[C@@H]5CC[C@@]4(C)[C@]3(C)CC[C@@]2(NC(=O)C2(NC(=O)c3ccc(Cl)cc3)CCCCC2)CC1=O [Example 48, (1R,3S)-3-((((3aR,5aR,5bR,7aR,9S,11aR,11bR,13aS)-3a-(1-(4-chlorobenzamido)cyclohexane-1-carboxamido)-1-isopropyl-5a,5b,8,8,11a-pentamethyl-2-oxo-3,3a,4,5,5a,5b,6,7,7a,8,9,10,11,11a,11b,12,13,13a-octadecahydro-2H-cyclopenta[a]chrysen-9-yl)oxy)carbonyl)-2,2-dimethylcyclobutane-1-carboxylic acid]
- viability at 4 days, 0.01 µM [1]: 44%
- viability at 4 days, 0.1 µM [1]: 12%
- viability at 4 days, 1 µM [1]: 4%
- AUC(0-t) [2]: 477 µg·h/mL
- Cmax [2]: 20300 ng/mL

SMILES: Cc1ccc(C(=O)NC2(C(=O)N[C@@]34CC[C@]5(C)[C@H](CC[C@@H]6[C@@]7(C)CC[C@H](OC(=O)[C@H]8C[C@@H](C(=O)O)C8(C)C)C(C)(C)[C@@H]7CC[C@]65C)C3=C(C(C)C)C(=O)C4)CCCCC2)cc1 [Example 50, (1R,3S)-3-((((3aR,5aR,5bR,7aR,9S,11aR,11bR,13aS)-1-isopropyl-5a,5b,8,8,11a-pentamethyl-3a-(1-(4-methylbenzamido)cyclohexane-1-carboxamido)-2-oxo-3,3a,4,5,5a,5b,6,7,7a,8,9,10,11,11a,11b,12,13,13a-octadecahydro-2H-cyclopenta[a]chrysen 9-yl)oxy)carbonyl)-2,2-dimethylcyclobutane-1-carboxylic acid]
- viability at 4 days, 0.01 µM [1]: 21%
- viability at 4 days, 0.1 µM [1]: 0%
- viability at 4 days, 1 µM [1]: 0%
- AUC(0-t) [2]: 454 µg·h/mL
- Cmax [2]: 23300 ng/mL

SMILES: CC(C)C1=C2[C@H]3CC[C@@H]4[C@@]5(C)CC[C@H](OC(=O)[C@H]6C[C@@H](C(=O)O)C6(C)C)C(C)(C)[C@@H]5CC[C@@]4(C)[C@]3(C)CC[C@@]2(NC(=O)C(C)(C)NC(=O)c2ccc(S(C)(=O)=O)cc2)CC1=O [Example 51, (1R,3S)-3-((((3aR,5aR,5bR,7aR,9S,11aR,11bR,13aS)-1-isopropyl-5a,5b,8,8,11a-pentamethyl-3a-(2-methyl-2-(4-(methylsulfonyl)benzamido)propanamido)-2-oxo-3,3a,4,5,5a,5b,6,7,7a,8,9,10,11,11a,11b,12,13,13a-octadecahydro-2H-cyclopenta[a]chrysen-9-yl)oxy)carbonyl)-2,2-dimethylcyclobutane-1-carboxylic acid]
- viability at 4 days, 0.001 µM [1]: 86%
- viability at 4 days, 0.003 µM [1]: 85%
- viability at 4 days, 0.01 µM [1]: 37%
- AUC(0-t) [2]: 277 µg·h/mL
- Cmax [2]: 32300 ng/mL

SMILES: CC(C)C1=C2[C@H]3CC[C@@H]4[C@@]5(C)CC[C@H](OC(=O)[C@H]6C[C@@H](C(=O)O)C6(C)C)C(C)(C)[C@@H]5CC[C@@]4(C)[C@]3(C)CC[C@@]2(NC(=O)C(C)(C)NC(=O)CN(C)C)CC1=O [Example 59, (1R,3S)-3-((((3aR,5aR,5bR,7aR,9S,11aR,11bR,13aS)-3a-(2-(2-(dimethylamino)acetamido)-2-methylpropanamido)-1-isopropyl-5a,5b,8,8,11a-pentamethyl-2-oxo-3,3a,4,5,5a,5b,6,7,7a,8,9,10,11,11a,11b,12,13,13a-octadecahydro-2H-cyclopenta[a]chrysen-9-yl)oxy)carbonyl)-2,2-dimethylcyclobutane-1-carboxylic acid]
- viability at 4 days, 0.01 µM [1]: 94%
- viability at 4 days, 0.1 µM [1]: 15%
- viability at 4 days, 1 µM [1]: 8%
- AUC(0-t) [2]: 186 µg·h/mL
- Cmax [2]: 13900 ng/mL

SMILES: Cc1cccc(C(=O)NC(C)(C)C(=O)N[C@@]23CC[C@]4(C)[C@H](CC[C@@H]5[C@@]6(C)CC[C@H](OC(=O)[C@H]7C[C@@H](C(=O)O)C7(C)C)C(C)(C)[C@@H]6CC[C@]54C)C2=C(C(C)C)C(=O)C3)n1 [Example 60, (1R,3S)-3-((((3aR,5aR,5bR,7aR,9S,11aR,11bR,13aS)-1-isopropyl-5a,5b,8,8,11a-pentamethyl-3a-(2-methyl-2-(6-methylpicolinamido)propanamido)-2-oxo-3,3a,4,5,5a,5b,6,7,7a,8,9,10,11,11a,11b,12,13,13a-octadecahydro-2H-cyclopenta[a]chrysen-9-yl)oxy)carbonyl)-2,2-dimethylcyclobutane-1-carboxylic acid]
- viability at 4 days, 0.01 µM [1]: 77%
- viability at 4 days, 0.1 µM [1]: 27%
- viability at 4 days, 1 µM [1]: 2%
- AUC(0-t) [2]: 217 µg·h/mL
- Cmax [2]: 20200 ng/mL

SMILES: Cc1ccc(C(=O)NC(C)(C)C(=O)N[C@@]23CC[C@]4(C)[C@H](CC[C@@H]5[C@@]6(C)CC[C@H](OC(=O)[C@H]7C[C@@H](C(=O)O)C7(C)C)C(C)(C)[C@@H]6CC[C@]54C)C2=C(C(C)C)C(=O)C3)cn1 [Example 61, (1R,3S)-3-((((3aR,5aR,5bR,7aR,9S,11aR,11bR,13aS)-1-isopropyl-5a,5b,8,8,11a-pentamethyl-3a-(2-methyl-2-(6-methylnicotinamido)propanamido)-2-oxo-3,3a,4,5,5a,5b,6,7,7a,8,9,10,11,11a,11b,12,13,13a-octadecahydro-2H-cyclopenta[a]chrysen-9-yl)oxy)carbonyl)-2,2-dimethylcyclobutane-1-carboxylic acid]
- viability at 4 days, 0.01 µM [1]: 88%
- viability at 4 days, 0.1 µM [1]: 42%
- viability at 4 days, 1 µM [1]: 2%
- AUC(0-t) [2]: 615 µg·h/mL
- Cmax [2]: 45700 ng/mL
